± gives the expanded uncertainty stated by the source.

From the NIST ThermoML archive (doi:10.1021/je900530f) come the findings set out here.

The conditions of this data set: Liquid.

With `CCC(C)(C)O` [2-methylbutan-2-ol], the “vapor or sublimation pressure” value (313.15 K) is given as 5.69 ± 0.24 kPa, the “vapor or sublimation pressure” value (323.15 K) is listed as 10.41 ± 0.32 kPa, the “vapor or sublimation pressure” value (333.15 K) came to 17.87 ± 0.43 kPa and the “vapor or sublimation pressure” value (338.15 K) came to 22.87 ± 0.51 kPa.

In the case of `CCCCCC` [hexane], the “vapor or sublimation pressure” value (313.15 K) turned out to be 37.04 ± 0.55 kPa, the “vapor or sublimation pressure” value (323.15 K) turned out to be 53.91 ± 0.74 kPa, the “vapor or sublimation pressure” value (333.15 K) was 76.32 ± 1 kPa and the “vapor or sublimation pressure” value (338.15 K) was determined as 89.92 ± 1.2 kPa.

For the compound `CCCC(C)O` (stereo not given) [pentan-2-ol], the “vapor or sublimation pressure” value was 2.13 ± 0.14 kPa (313.15 K), 4.16 ± 0.16 kPa (323.15 K), 7.57 ± 0.2 kPa (333.15 K) and 9.99 ± 0.23 kPa (338.15 K).

`CCC(C)O` (stereo not given) [butan-2-ol]: the “vapor or sublimation pressure” value (313.15 K) was 5.83 ± 0.18 kPa, the “vapor or sublimation pressure” value (323.15 K) was determined as 10.48 ± 0.24 kPa and the “vapor or sublimation pressure” value (333.15 K) is given as 18.2 ± 0.33 kPa.
